# According to patent US20100311748A1, “HETEROCYCLIC AMIDES USEFUL FOR THE TREATMENT OF CANCER AND PSORIASIS” (ASTRAZENECA AB, priority 2007, published 2010):
# pIC50: −log10 of the molar value.
# Test system: Hedgehog pathway
# Test: Hedgehog Pathway Cellular Differentiation Assay (alkaline phosphatase production in C3H10T1/2 cells with Shh ligand)
# Format: cell-based
# Settings: 3 μM compound, Shh ligand conditioned media, 72 h, alkaline phosphatase
# Method in brief: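 C3H10T1/2 cells in DMEM/2% FBS with Shh-conditioned medium were treated 72 h with compound, threefold dilutions from 30 μM to 3 nM. After RIPA lysis, alkaline phosphatase was read with pNp (1 mg/mL, diethanolamine pH 9.8) at 30 °C, absorbance 405 nm. Percent inhibition and IC50 came from absorbance.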
row,SMILES,% Inhibition at 3 μM
1,Cc1ccc(-c2ncc[nH]2)cc1NC(=O)c1ccc(OCc2cccc(OCCO)n2)cc1 [Example 122],84.6%

# Same assay, conditions: Mus musculus, C3H 10T1/2, 3 μM compound, Shh ligand conditioned media, 72 h, alkaline phosphatase
row,SMILES,inhibition at 3 µM
1,"COc1cc(COc2ccc(C(=O)Nc3cc(-c4nc(C)c[nH]4)ccc3C)cc2)cc(OC)c1 [Example 43, 4-[(3,5-dimethoxyphenyl)methoxy]-N-[2-methyl-5-(4-methyl-1H-imidazol-2-yl)phenyl]benzamide]",81.4%
2,"Cc1ccc(-c2ncc(Cn3cccn3)s2)cc1NC(=O)c1ccc(OCc2ccccn2)cc1 [Example 4, N-[2-methyl-5-[5-(pyrazol-1-ylmethyl)1,3-thiazol-2-yl]phenyl]-4-(pyridin-2-ylmethoxy)benzamide]",65.4%
3,"CCc1c[nH]c(-c2ccc(C)c(NC(=O)c3ccc(OCc4ccccn4)cc3)c2)n1 [Example 85, N-[5-(4-ethyl-1H-imidazol-2-yl)-2-methylphenyl]-4-(pyridin-2-ylmethoxy)benzamide]",78.8%
4,"Cc1ccc(-c2ncc[nH]2)cc1NC(=O)c1cccc(Cl)c1 [Example 152, 3-chloro-N-[5-(1H-imidazol-2-yl)-2-methyl-phenyl]benzamide]",45.3%
5,"Cc1ccc(-c2cnc(C)n2C)cc1NC(=O)c1ccc(OCc2ccccc2C#N)cc1 [Example 55, 4-[(2-cyanophenyl)methoxy]-N-[5-(2,3-dimethylimidazol-4-yl)-2-methyl-phenyl]benzamide]",84.3%
6,"O=C(Nc1cc(-c2nc3ccccc3[nH]2)ccc1Cl)c1ccc(OCc2ccccn2)cc1 [Example 106, N-[5-(1H-benzimidazol-2-yl)-2-chlorophenyl]-4-(pyridin-2-ylmethoxy)benzamide]",81.6%
7,"Cc1cn(C)c(-c2ccc(C)c(NC(=O)c3ccc(OCc4ccccc4C#N)cc3)c2)n1 [Example 45, 4-[(2-cyanophenyl)methoxy]-N-[5-(1,4-dimethylimidazol-2-yl)-2-methyl-phenyl]benzamide]",80.3%
8,"Cc1ccc(-c2ccccn2)cc1NC(=O)c1ccc(OCc2ccccn2)cc1 [Example 9, N-(2-methyl-5-pyridin-2-yl-phenyl)-4-(pyridin-2-ylmethoxy)benzamide]",60.5%
9,"Cc1ccc(-c2nc3ccccc3[nH]2)cc1NC(=O)c1ccc(OCc2ccccn2)cc1 [Example 30, N-[5-(1H-benzoimidazol-2-yl)-2-methyl-phenyl]-4-(pyridin-2-ylmethoxy)benzamide]",80.1%
10,"Cc1ccc(-c2nccn2C)cc1NC(=O)c1ccc(OCc2cc(Oc3ccccc3)ccn2)cc1 [Example 96, N-[2-methyl-5-(1-methyl-1H-imidazol-2-yl)phenyl]-4-[(4-phenoxypyridin-2-yl)methoxy]benzamide]",79.8%
11,"Cc1ccc(-c2ncc[nH]2)cc1NC(=O)c1ccc(OC(C)c2ccccn2)cc1 (centres unmarked) [Example 110, N-[5-(1H-imidazol-2-yl)-2-methylphenyl]-4-(1-pyridin-2-ylethoxy)benzamide]",92.3%
12,"Cc1ccc(-c2cnc3ccccc3n2)cc1NC(=O)c1ccc(OCc2ccccn2)cc1 [Example 22, N-(2-methyl-5-quinoxalin-2-yl-phenyl)-4-(pyridin-2-ylmethoxy)benzamide]",60.7%
13,"Cc1ccc(-c2nc(C3CC3)c[nH]2)cc1NC(=O)c1ccc(OCc2ccccn2)cc1 [Example 87, N-[5-(4-cyclopropyl-1H-imidazol-2-yl)-2-methylphenyl]-4-(pyridin-2-ylmethoxy)benzamide]",74.8%
14,"Cc1ccc(-c2nccn2C)cc1NC(=O)c1ccc(OCc2cc(N(C)CCN(C)C)ccc2C#N)cc1 [Example 116, 4-[(2-cyano-5-{[2-(dimethylamino)ethyl](methyl)amino}benzyl)oxy]-N-[2-methyl-5-(1-methyl-1H-imidazol-2-yl)phenyl]benzamide]",83.4%
15,"Cc1c[nH]c(-c2ccc(C)c(NC(=O)c3ccc(OCc4ccccc4C#N)cc3)c2)n1 [Example 44, 4-[(2-cyanophenyl)methoxy]-N-[2-methyl-5-(4-methyl-1H-imidazol-2-yl)phenyl]benzamide]",80.7%
16,"COc1cc(COc2ccc(C(=O)Nc3cc(-c4nc(C)cn4C)ccc3C)cc2)cc(OC)c1 [Example 42, 4-[(3,5-dimethoxyphenyl)methoxy]-N-[5-(1,4-dimethylimidazol-2-yl)-2-methyl-phenyl]benzamide]",79.4%
17,"Cc1ccc(-c2ncc[nH]2)cc1NC(=O)c1ccc(OCc2ncccc2N2CCN(C)CC2)cc1 [Example 138, N-(5-(1H-imidazol-2-yl)-2-methylphenyl)-4-((3-(4-methylpiperazin-1-yl)pyridin-2-yl)methoxy)benzamide]",42.2%
18,"Cc1cc(Cl)c(-c2cn(C)cn2)cc1NC(=O)c1ccc(OCc2ccccn2)cc1 [Example 75, N-[4-chloro-2-methyl-5-(1-methyl-1H-imidazol-4-yl)phenyl]-4-(pyridin-2-ylmethoxy)benzamide]",77.8%

# Same assay, conditions: Mus musculus, C3H 10T1/2, Shh ligand conditioned media, 72 h, alkaline phosphatase (pNp, 405 nm)
row,SMILES,pIC50
1,"Cc1ccc(-c2ccccn2)cc1NC(=O)c1ccc(OCc2ccccn2)cc1 [Example 9, N-(2-methyl-5-pyridin-2-yl-phenyl)-4-(pyridin-2-ylmethoxy)benzamide]",6.92
